Results reported in patent publication US20120282224A1, “MARKERS ASSOCIATED WITH RIBAVIRIN-INDUCED ANEMIA” (priority 2009, published 2012).
Each block holds one compound with its values, some of them ahead of it.

How the values were obtained:
[1] = human, in vivo, 4 weeks
Description: In order to identify genetic contributions to treatment response, the inventors carried out a genome-wide association study on genomic samples obtained from the IDEAL study, the design of which was reported in McHutchison et al., J. Viral Hepatol., Vol. 15, No. 7, July 2008, pp. 475-481). Briefly, in the IDEAL study, treatment-naive patients chronically infected with HCV genotype 1 were randomized (1:1:1) to receive one of the following 48-week treatment regimens: peginterferon alfa-2b (PEG2b) at 1.5 mcg/kg/week plus ribavirin (RBV); PEG2b at 1.0 mcg/kg/week plus RBV; or peginterferon alfa-2a (PEG2a) at 180 meg/week+RBV. In the PEG2b regimens, patients weighing 40-65 kg received 800 mg/day RBV; patients weighing more than 65 and up to 85 kg received 1000 mg/day RBV; patients weighing more than 85 and up to 105 kg received 1200 mg/day RBV; and patients weighing more than 105 kg received 1400 mg/day RBV). In the PEG2a regimen patients weighing <75 kg received 1000 mg/day of RBV while patients weighing ≧75 kg received 1200 mg/day of RBV. Hemoglobin values were measured at baseline (before the first dose of treatment), at week 2, 4, 8, 12, and then every 6 weeks up to treatment completion (48 weeks total). Follow-up measures were obtained at 4, 12 and 24 weeks post-treatment. […]

[2] = tested on: erythrocytes; conditions: erythrocytes versus plasma; cited from earlier work
[3] = taribavirin with PegIntron (peginterferon alfa-2b), clinical trials; cited from earlier work

patients with Hb concentrations <10 g/dL (severe anemia) [1]: 13%
SMILES: NC(=O)c1ncn([C@@H]2O[C@H](CO)[C@@H](O)[C@H]2O)n1 [RBV, 1-[(2R,3R,4S,5R)-3,4-dihydroxy-5-(hydroxymethyl)oxolan-2-yl]-1H-1,2,4-triazole-3-carboxamide]

SMILES: NC(=O)c1ncn([C@@H]2O[C@H](COP(=O)(O)OP(=O)(O)OP(=O)(O)O)[C@@H](O)[C@H]2O)n1 [RTP]
RTP concentration in erythrocytes relative to plasma [2]: 60 fold

SMILES: N=C(N)c1ncn([C@@H]2O[C@H](CO)[C@@H](O)[C@H]2O)n1 [taribavirin, 1-(β-D-Ribofuranosyl)-1,2,4-triazole-3-carboximide]
anemia compared with patients treated with ribavirin and PegIntron [3]: less anemia
